d = 2'-deoxy (DNA); r = 2'-OH (RNA)
How the values were obtained:
GAPDH [1] = experiment: GAPDH gene knockdown in MG63 cells by RT-PCR; type: cell-based, human; settings: for GAPDH gene knockdown: 50 nM, 24 h
Procedure: At 70% confluency, a day prior to transfection, the cells were seeded at a density of 35 000 cells in a 24-well cell culture plate to achieve 60-80% confluence at the day of transfection. Cell penetrating siRNAs (cpRNAs) of different lengths were transfected at 50 nM concentrations with Magnet Assisted Transfection (MATra-si) reagent for siRNAs (IBA GmbH, Göttingen, Germany) according to the manufacturers' protocols. Briefly, the siRNA was mixed with MATra-si reagent composed of supermagnetic ironoxide nanoparticles and incubated for 20 min. A complex was formed which was added to the cells to be transfected. A strong magnetic force was applied beneath the cells for 15 min. This forced the complex to be drawn into the cells by the magnetic field, and as a result the siRNA was delivered directly into the cytosol. For carrier free transfection experiments, cpRNAs were simply added to cells lines MG63, HOB, HCT116, fibroblasts and keratinocytes at 50 nM concentrations. Cells were also transfected with negative control siRNA (scrambled sequence) and cells left untreated were taken as controls. Each transfection was performed in triplicate. Post transfection, cells were incubated for 24 hours.
For the experiments involving lysosomotropic agent chloroquine (CQ), CQ was first neutralized to pH 7.4 using 1 M NaOH prior to use. MG63 cells were transfected with dT2, dT5, dT8, (dT5)2, as(dT5), and bl(dT5) siRNA in presence or absence of 100 μM CQ or using MATra-si and incubated for 24 h. Similar experiments were performed for other cpRNAs namely, dA5, dT5, dG5, (dT5)2, rA5 and dC5. For the control experiment, cells were either left untreated or transfected with negative control siRNA (scrambled sequence). Each transfection experiment was performed in triplicate.
After performing transfection experiments for 24 h, 48 h and 72 h respectively, total RNA was isolated from cells by adding 500 μl of lysis buffer (Qiagen, Germany), followed by homogenization of cell lysates using QIAshredder (Qiagen, Germany). RNA was extracted from cell lysates by RNeasy Mini Kit (Qiagen, Germany). All RNA samples were treated with DNase using TURBO-DNAfree (Ambion, USA). Agilent 2100 BioAnalyzer (Agilent Technologies, Palo Alto, Calif.) was used to confirm high quality of all RNA samples, which reports an RNA Integrity Number (RIN) that takes into account the entire electrophoretic RNA trace produced in the analysis. A RIN of greater than or equal to seven indicates the RNA is suitable for high stringency applications.
cDNA synthesis was performed in triplicate using total RNA reverse transcribed using High Capacity cDNA reverse transcription kit (Applied Biosystems, USA), with non-template control added to ensure a lack of signal in assay background. Reactions were incubated on a 96-well Applied Biosystems 9800 Fast Thermal Cycler PCR System at 37° C. for 60 min followed by 95° C. for 5 min. The real-time PCR reactions were carried out with 10 μl of 2×TaqMan® Universal PCR Master Mix, no AmpErase® UNG (Applied Biosystems, USA), 9 μl diluted cDNA, and 1 μl of TaqMan gene specific assay mix in a 20 μl final reaction volume. Reference gene beta-actin (ACTB) (Applied Biosystems, USA) was selected as control for normalization of TaqMan data. The assay included a no-template control, a standard curve of five serial dilution points (in steps of 3-fold) of cDNA mixture. Probes specific for IFN-α (Hs01022060_m1), IFN-β (Hs01077958_s1), IFN-γ (Hs00985251_m1), ACTB(Hs01060665_g1) and GAPDH (Hs02758991_g1) were purchased from Applied Biosystems. The amplification was carried out using the 7500 Fast Real-Time PCR System (Applied Biosystems, USA) using a 40-cycle program. The 7500 software automatically calculates raw Ct (cycle threshold) values. Data from samples with a Ct value equal to or below 35 were further analyzed. […]

GAPDH [2] = experiment: Carrier-free GAPDH knockdown in different cell types (HOB, HCT116, MG63) by RT-PCR; type: cell-based, human
Procedure: Primary human osteoblast (HOB) cells isolated from human trabecular bone and keratinocytes and fibroblasts cells were isolated from skin tissue from healthy human donors. MG63 (human osteosarcoma cell line), HCT116 (human colon cancer cell line), HEK293 (human embryonic kidney 293 cells), C2C12 (mouse myoblast cell line) and MC3T3 (mouse osteoblast precursor cell line) cell lines were obtained from American Type Culture Collection, ATCC (Manassas, Va., USA). Cells were cultured until confluence was reached. The human cell experiments were approved by the local ethics committee (Ethical approval # Ups 03-561).
At 70% confluency, a day prior to transfection, the cells were seeded at a density of 35 000 cells in a 24-well cell culture plate to achieve 60-80% confluence at the day of transfection. Cell penetrating siRNAs (cpRNAs) of different lengths were transfected at 50 nM concentrations with Magnet Assisted Transfection (MATra-si) reagent for siRNAs (IBA GmbH, Göttingen, Germany) according to the manufacturers' protocols. […]
cDNA synthesis was performed in triplicate using total RNA reverse transcribed using High Capacity cDNA reverse transcription kit (Applied Biosystems, USA), with non-template control added to ensure a lack of signal in assay background. […] Data from samples with a Ct value equal to or below 35 were further analyzed. Samples were normalized relative to endogenous control and differences in cycle number thresholds were calculated using comparative quantitation 2^−ΔΔcT method (also called the ΔΔCT method), commonly used for analyzing siRNA induced gene knockdown efficiency.
The formulas used to calculate gene knockdown were as follows: First, the ΔCT was calculated as the mean cycle threshold for the target gene minus the mean cycle thresholds for the endogenous controls ACTB, each performed in triplicates: ΔCT=CT (target gene)−CT (endogenous control). Secondly, the ΔΔCT was calculated as the ΔCT of the target minus the ΔCT of negative control (NC): ΔΔCT=ΔCT (target)−ΔCT (NC). […]

[3] = MG63 cells, MATra-si transfection
[4] = MG63 cells, carrier-free transfection

Substance | GAPDH gene knockdown (GAPDH [1]; [3]) | GAPDH gene knockdown (GAPDH [1]; [4]) | RNAi activity in primary cells (GAPDH [2]; primary cells) | GAPDH mRNA knockdown efficiency over time (GAPDH [1]; MG63, 50 nM, 24, 48 and 72 h, cpRNA without transfection reagent vs canonical siRNA with transfection reagent) | RNAi activity among different 5-nt candidates (GAPDH [1]; MG63 cells, FIG. 2B) | enhancement in activity compared to canonical siRNA (GAPDH [1]; [3]) | GAPDH gene knockdown in different cell types (GAPDH [2]; 50 nM) | knockdown efficiency compared to canonical siRNA (GAPDH [2]; HOB, HCT116 and MG63 cells)
dT2: Canonical GAPDH siRNA, sense SEQ ID NO: 1, antisense SEQ ID NO: 2, dTdT 3′-overhang on both strands (sense CCGAGCCACAUCGCUCAGATT; antisense UCUGAGCGAUGUGGCUCGGTT; sugars from the 5' end r19 d2, backbone not given here) [reference compound] | 60% | 28% | only limited activity |  |  |  |  | 
dT5: GAPDH siRNA, sense SEQ ID NO: 3 with dT5 3′-overhang, antisense SEQ ID NO: 2 with dT2 (sense CCGAGCCACAUCGCUCAGATTTTT; antisense UCUGAGCGAUGUGGCUCGGTT; sense: sugars from the 5' end r19 d5, backbone not given here; antisense: sugars from the 5' end r19 d2, backbone not given here) |  | 80% |  | higher gene knockdown efficiency for over 72 hrs | highest RNAi activity | 20% | 80% | 3-4 fold

Source: patent publication US20180265867A1, “NUCLEIC ACID MOLECULES WITH ENHANCED ACTIVITY” (priority 2015, published 2018)
